This data set relates to CCRIS mutagenicity, Ames/micronucleus/aberration tests. Description: CCRIS mutagenicity studies.
Setting [1] is: Test System: AMES SALMONELLA TYPHIMURIUM, Strain/Indicator: TA98, Metabolic Activation: NONE, Method: STANDARD PLATE.
Setting [2] is: Test System: AMES SALMONELLA TYPHIMURIUM, Strain/Indicator: TA100, Metabolic Activation: NONE, Method: STANDARD PLATE.
The mark [3] stands for this setting: Test System: AMES SALMONELLA TYPHIMURIUM, Strain/Indicator: TA1537, Metabolic Activation: NONE, Method: STANDARD PLATE.

Active and inactive are the calls of the source. The rule behind the calls is not given here.

In the case of `Clc1cc(Cl)c(Cl)cc1Cl`, the mutagenic call (End Point: IN VITRO CHROMOSOMAL ABERRATIONS, Test System: CHO-LB CELLS, Metabolic Activation: NONE) is “inactive; negative”; the mutagenic call (End Point: IN VITRO CHROMOSOMAL ABERRATIONS, Test System: CHO-LB CELLS, Metabolic Activation: RAT, LIVER, S-9, AROCLOR 1254) was “inactive; negative”; the mutagenic call (Test System: AMES SALMONELLA TYPHIMURIUM, Strain/Indicator: TA98, Metabolic Activation: HAMSTER, LIVER, S-9, AROCLOR 1254, Method: STANDARD PLATE) is “inactive; negative”; the mutagenic call under setting [1] is “inactive; negative”; the mutagenic call (Test System: AMES SALMONELLA TYPHIMURIUM, Strain/Indicator: TA98, Metabolic Activation: RAT, LIVER, S-9, AROCLOR 1254, Method: STANDARD PLATE) was “inactive; negative”; the mutagenic call (Test System: AMES SALMONELLA TYPHIMURIUM, Strain/Indicator: TA100, Metabolic Activation: HAMSTER, LIVER, S-9, AROCLOR 1254, Method: STANDARD PLATE) is “inactive; negative”. Also, the mutagenic call was “inactive; negative” under setting [2]; “inactive; negative” (Test System: AMES SALMONELLA TYPHIMURIUM, Strain/Indicator: TA100, Metabolic Activation: RAT, LIVER, S-9, AROCLOR 1254, Method: STANDARD PLATE); “inactive; negative” (Test System: AMES SALMONELLA TYPHIMURIUM, Strain/Indicator: TA1535, Metabolic Activation: HAMSTER, LIVER, S-9, AROCLOR 1254, Method: STANDARD PLATE); “inactive; negative” (Test System: AMES SALMONELLA TYPHIMURIUM, Strain/Indicator: TA1535, Metabolic Activation: NONE, Method: STANDARD PLATE); “inactive; negative” (Test System: AMES SALMONELLA TYPHIMURIUM, Strain/Indicator: TA1535, Metabolic Activation: RAT, LIVER, S-9, AROCLOR 1254, Method: STANDARD PLATE); “inactive; negative” (Test System: AMES SALMONELLA TYPHIMURIUM, Strain/Indicator: TA1537, Metabolic Activation: HAMSTER, LIVER, S-9, AROCLOR 1254, Method: STANDARD PLATE). The mutagenic call by setting is: under setting [3], “inactive; negative”; (Test System: AMES SALMONELLA TYPHIMURIUM, Strain/Indicator: TA1537, Metabolic Activation: RAT, LIVER, S-9, AROCLOR 1254, Method: STANDARD PLATE) “inactive; negative”; (Test System: AMES SALMONELLA TYPHIMURIUM, Strain/Indicator: TA1538, Metabolic Activation: HAMSTER, LIVER, S-9, AROCLOR 1254, Method: STANDARD PLATE) “inactive; negative”; (Test System: AMES SALMONELLA TYPHIMURIUM, Strain/Indicator: TA1538, Metabolic Activation: NONE, Method: STANDARD PLATE) “inactive; negative”; (Test System: AMES SALMONELLA TYPHIMURIUM, Strain/Indicator: TA1538, Metabolic Activation: RAT, LIVER, S-9, AROCLOR 1254, Method: STANDARD PLATE) “inactive; negative”; (Test System: MOUSE LYMPHOMA, Strain/Indicator: L5178Y (TK+/TK-), Metabolic Activation: NONE, Method: SUSPENSION/PLATE) “inactive; negative. reevaluation of results: negative”. In addition, where the note is “Test System: MOUSE LYMPHOMA, Strain/Indicator: L5178Y (TK+/TK-), Metabolic Activation: RAT, LIVER, S-9, AROCLOR 1254, Method: SUSPENSION/PLATE”, the mutagenic call was “inactive; negative. reevaluation of results: negative”.

Consider `Oc1ccc(Cl)cc1Sc1cc(Cl)ccc1O`, for which the mutagenic call was “inactive; negative” (Test System: AMES SALMONELLA TYPHIMURIUM, Strain/Indicator: TA97, Metabolic Activation: HAMSTER, LIVER, S-9, AROCLOR 1254 (10 OR 30%), Method: PREINCUBATION); “inactive; negative” (Test System: AMES SALMONELLA TYPHIMURIUM, Strain/Indicator: TA97, Metabolic Activation: NONE, Method: PREINCUBATION); “inactive; negative” (Test System: AMES SALMONELLA TYPHIMURIUM, Strain/Indicator: TA97, Metabolic Activation: RAT, LIVER, S-9, AROCLOR 1254 (10 OR 30%), Method: PREINCUBATION); “inactive; negative” (Test System: AMES SALMONELLA TYPHIMURIUM, Strain/Indicator: TA98, Metabolic Activation: HAMSTER, LIVER, S-9, AROCLOR 1254 (10 OR 30%), Method: PREINCUBATION); “inactive; negative” (Test System: AMES SALMONELLA TYPHIMURIUM, Strain/Indicator: TA98, Metabolic Activation: NONE, Method: PREINCUBATION); “inactive; negative” (Test System: AMES SALMONELLA TYPHIMURIUM, Strain/Indicator: TA98, Metabolic Activation: RAT, LIVER, S-9, AROCLOR 1254 (10 OR 30%), Method: PREINCUBATION). The mutagenic call is, setting by setting: (Test System: AMES SALMONELLA TYPHIMURIUM, Strain/Indicator: TA100, Metabolic Activation: HAMSTER, LIVER, S-9, AROCLOR 1254 (10 OR 30%), Method: PREINCUBATION) “inactive; negative”; (Test System: AMES SALMONELLA TYPHIMURIUM, Strain/Indicator: TA100, Metabolic Activation: NONE, Method: PREINCUBATION) “inactive; negative”; (Test System: AMES SALMONELLA TYPHIMURIUM, Strain/Indicator: TA100, Metabolic Activation: RAT, LIVER, S-9, AROCLOR 1254 (10 OR 30%), Method: PREINCUBATION) “inactive; negative”; (Test System: AMES SALMONELLA TYPHIMURIUM, Strain/Indicator: TA1535, Metabolic Activation: HAMSTER, LIVER, S-9, AROCLOR 1254 (10 OR 30%), Method: PREINCUBATION) “inactive; negative”; (Test System: AMES SALMONELLA TYPHIMURIUM, Strain/Indicator: TA1535, Metabolic Activation: NONE, Method: PREINCUBATION) “inactive; negative”; (Test System: AMES SALMONELLA TYPHIMURIUM, Strain/Indicator: TA1535, Metabolic Activation: RAT, LIVER, S-9, AROCLOR 1254 (10 OR 30%), Method: PREINCUBATION) “inactive; negative”.

`C/C=C\C1=CC(=O)[C@]23C[C@H]2C(C)(C)O[C@]3(O)C1=O`: the mutagenic call was “inactive; negative” (Test System: AMES SALMONELLA TYPHIMURIUM, Strain/Indicator: TA97, Metabolic Activation: NONE); “inactive; negative” (Test System: AMES SALMONELLA TYPHIMURIUM, Strain/Indicator: TA98, Metabolic Activation: NONE); “active; positive” (Test System: AMES SALMONELLA TYPHIMURIUM, Strain/Indicator: TA100, Metabolic Activation: NONE); “active; positive” (Test System: AMES SALMONELLA TYPHIMURIUM, Strain/Indicator: TA102, Metabolic Activation: NONE).

As for `CN(C)CCNC(=O)c1ccc2nc3ccccc3c(N)c2c1`, the mutagenic call under setting [3] was “inactive; negative”.

As to `O=[N+]([O-])c1c2ccccc2cc2c1ccc1ccccc12`, the mutagenic call reads like this: under setting [1], “inactive; negative”; under setting [2], “inactive; negative”.

Values taken from PubChem BioAssay AID1259407 (Chemical Carcinogenesis Research Information System (CCRIS), 2018).
